Data: ChEMBL document CHEMBL5543126, “Combinatorial Ubiquitination REal-time PROteolysis (CURE-PROs): A Modular Platform for Generating Reversible, Self-Assembling Bifunctional Targeted Degraders” (J Med Chem, 2024)
Activity calls are given as the source filed them. No cut-off for these calls is given here.

Legend:
[1] = target: Protein cereblon/Bromodomain-containing protein 4 (Homo sapiens) (UniProt O60885+Q96SW2); experiment: PROTAC activity at BRD4/CRBN in human HeLa cells assessed as induction of BRD4 degradation at 10 uM incubated for 24 hrs in presence of CRBN based ligand N-((2-(2,6-dioxopiperidin-3-yl)-1,3-dioxoisoindolin-4-yl)methyl)-3,4-dihydroxybenzamide by Western blot analysis based Combinatorial Ubiquitination Real-time PROteolysis analysis; format: cell-based
Chain of Protein cereblon/Bromodomain-containing protein 4 (Homo sapiens) (Q96SW2 whole entry, looked up, other chains not shown): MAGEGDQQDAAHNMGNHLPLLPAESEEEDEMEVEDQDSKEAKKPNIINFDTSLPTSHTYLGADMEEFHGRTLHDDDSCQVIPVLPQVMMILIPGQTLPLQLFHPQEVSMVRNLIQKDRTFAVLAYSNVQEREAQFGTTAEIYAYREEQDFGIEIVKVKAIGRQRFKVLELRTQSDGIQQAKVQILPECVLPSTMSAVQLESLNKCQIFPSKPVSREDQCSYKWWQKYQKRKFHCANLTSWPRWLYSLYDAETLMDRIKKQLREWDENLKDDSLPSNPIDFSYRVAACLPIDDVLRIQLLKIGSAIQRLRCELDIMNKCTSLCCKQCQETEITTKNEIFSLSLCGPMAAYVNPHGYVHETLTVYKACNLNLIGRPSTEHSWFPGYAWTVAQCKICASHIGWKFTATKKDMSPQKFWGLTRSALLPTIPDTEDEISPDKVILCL

[2] = target: T1, von Hippel-Lindau disease tumor suppressor/Bromodomain-containing protein 4 (Homo sapiens, UniProt O60885+P40337); experiment: PROTAC activity at VHL/BRD4 in HEK293 cells assessed as induction of BRD4 degradation by measuring maximal level of degradation at 0.3 uM measured every 15 mins for 24 hrs in presence of VHL based ligand (2S,4R)-1-((S)-2-(2,3-dihydroxybenzamido)-3,3-dimethylbutanoyl)-4-hydroxy-N-(4-(4-methylthiazol-5-yl)benzyl)pyrrolidine-2-carboxamide by HiBiT based Combinatorial Ubiquitination Real-time PROteolysis analysis; format: cell-based
T1 sequence (P40337 whole entry, looked up, other chains not shown): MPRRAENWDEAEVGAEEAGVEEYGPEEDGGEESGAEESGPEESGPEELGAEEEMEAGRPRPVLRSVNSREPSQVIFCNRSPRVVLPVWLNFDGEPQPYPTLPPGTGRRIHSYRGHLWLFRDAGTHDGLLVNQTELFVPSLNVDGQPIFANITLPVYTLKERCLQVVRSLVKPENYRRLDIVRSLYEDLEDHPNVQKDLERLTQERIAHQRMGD

[3] = target: T1, von Hippel-Lindau disease tumor suppressor/Bromodomain-containing protein 4; experiment: PROTAC activity at BRD4/VHL in human MCF7 cells assessed as induction of BRD4 degradation by measuring residual activity at 30 nM incubated for 24 hrs by Western blot analysis; format: cell-based
[4] = target: T1, von Hippel-Lindau disease tumor suppressor/Bromodomain-containing protein 4; experiment: PROTAC activity at BRD4/VHL in human MCF7 cells assessed as induction of BRD4 degradation by measuring residual activity at 100 nM incubated for 24 hrs by Western blot analysis; format: cell-based
[5] = target: T1, von Hippel-Lindau disease tumor suppressor/Bromodomain-containing protein 4; experiment: PROTAC activity at BRD4/VHL in human MCF7 cells assessed as induction of BRD4 degradation by measuring residual activity at 300 nM incubated for 24 hrs by Western blot analysis; format: cell-based
[6] = target: T1, von Hippel-Lindau disease tumor suppressor/Bromodomain-containing protein 4; experiment: PROTAC activity at BRD4/VHL in human MCF7 cells assessed as induction of BRD4 degradation by measuring residual activity at 1 uM incubated for 24 hrs by Western blot analysis; format: cell-based
[7] = target: T1, von Hippel-Lindau disease tumor suppressor/Bromodomain-containing protein 4; experiment: PROTAC activity at BRD4/VHL in human MCF7 cells assessed as induction of BRD4 degradation by measuring residual activity at 3 uM incubated for 24 hrs by Western blot analysis; format: cell-based
[8] = target: T1, von Hippel-Lindau disease tumor suppressor/Bromodomain-containing protein 4; experiment: PROTAC activity at BRD4/VHL in human MCF7 cells assessed as induction of BRD4 degradation by measuring residual activity at 10 uM incubated for 24 hrs by Western blot analysis; format: cell-based
[9] = target: T1, von Hippel-Lindau disease tumor suppressor/Bromodomain-containing protein 4; experiment: (§1) PROTAC activity at BRD4/VHL in human MCF7 cells assessed as induction of BRD4 degradation by measuring residual activity at 300 nM incubated for 24 hrs in presence of 300 nM VHL based ligand (2S,4R)-1-((S)-2-(2,3-dihydroxybenzamido)-3,3-dimethylbutanoyl)-4-hydroxy-N-(4-(4-methylthiazol-5-yl)benzyl)pyrrolidine-2-carboxamide by Western blot based Combinatorial Ubiquitination Real-time PROteolysis analysis; format: cell-based
[10] = target: T1, von Hippel-Lindau disease tumor suppressor/Bromodomain-containing protein 4; experiment: as §1, with “at 100” for “at 300”, “of 1 uM” for “of 300 nM”; format: cell-based
[11] = target: T1, von Hippel-Lindau disease tumor suppressor/Bromodomain-containing protein 4; experiment: as §1, with “at 10 uM” for “at 300 nM”, “of 1 uM” for “of 300 nM”; format: cell-based
[12] = target: T1, von Hippel-Lindau disease tumor suppressor/Bromodomain-containing protein 4; experiment: as §1, with “3 uM” for “300 nM”; format: cell-based
[13] = target: T1, von Hippel-Lindau disease tumor suppressor/Bromodomain-containing protein 4; experiment: as §1, with “at 30” for “at 300”, “of 10 uM” for “of 300 nM”; format: cell-based
[14] = Metabolic stability in C57BL/6 mouse liver microsome assessed as half life at 1 uM measured upto 60 mins by LC-MS/MS analysis; format: ADME, microsomes
[15] = Metabolic stability in C57BL/6 mouse liver microsome at 1 uM measured upto 60 mins in presence of NADPH/UDPGA by LC-MS/MS analysis; format: ADME, microsomes
[16] = Metabolic stability in C57BL/6 mouse liver microsome at 1 uM measured upto 60 mins in absence of NADPH/UDPGA by LC-MS/MS analysis; format: ADME; conditions: liver microsomes, read-out: Stability
[17] = Metabolic stability in human liver microsome assessed as half life at 1 uM measured upto 60 mins by LC-MS/MS analysis; format: ADME; conditions: liver microsomes
[18] = Metabolic stability in human liver microsome at 1 uM measured upto 60 mins in presence of NADPH/UDPGA by LC-MS/MS analysis; format: ADME; conditions: liver microsomes, read-out: Stability
[19] = Metabolic stability in human liver microsome at 1 uM measured upto 60 mins in absence of NADPH/UDPGA by LC-MS/MS analysis; format: ADME; conditions: liver microsomes, read-out: Stability
[20] = Cmax in C57BL/6 mouse at 10 mg/kg, ip measured upto 24 hrs by LC-MS/MS analysis; format: ADME, organism-based; conditions: in vivo
[21] = Tmax in C57BL/6 mouse at 10 mg/kg, ip measured upto 24 hrs by LC-MS/MS analysis; format: ADME, organism-based; conditions: in vivo
[22] = AUClast in C57BL/6 mouse at 10 mg/kg, ip measured upto 24 hrs by LC-MS/MS analysis; format: ADME, organism-based; conditions: in vivo
[23] = Half life in C57BL/6 mouse at 10 mg/kg, ip measured upto 24 hrs by LC-MS/MS analysis; format: ADME, organism-based; conditions: in vivo
[24] = target: T1, von Hippel-Lindau disease tumor suppressor/Bromodomain-containing protein 4; experiment: (§2) PROTAC activity at VHL/BRD4 in HEK293 cells assessed as induction of BRD4 degradation by measuring Tmax at 0.3 uM measured every 15 mins for 24 hrs in presence of BRD4 based ligand ((4S)-6-(4-chlorophenyl)-4-(2-(ethylamino)-2-oxoethyl)-1-methyl4Hbenzo[f][1,2,4]triazolo [4,3-a][1,4]diazepin-8-yl)boronic acid by HiBiT based Combinatorial Ubiquitination Real-time PROteolysis analysis; format: cell-based
[25] = target: T1, von Hippel-Lindau disease tumor suppressor/Bromodomain-containing protein 4; experiment: as §2, with “3” for “0.3”; format: cell-based
[26] = target: T1, von Hippel-Lindau disease tumor suppressor/Bromodomain-containing protein 4; experiment: PROTAC activity at VHL/BRD4 in human MCF7 cells assessed as induction of BRD4 degradation at 10 uM measured at 4 hrs in presence of BRD4 based ligand ((4S)-6-(4-chlorophenyl)-4-(2-(ethylamino)-2-oxoethyl)-1-methyl4Hbenzo[f][1,2,4]triazolo [4,3-a][1,4]diazepin-8-yl)boronic acid by Western blot based Combinatorial Ubiquitination Real-time PROteolysis analysis; format: cell-based
[27] = target: T1, von Hippel-Lindau disease tumor suppressor/Bromodomain-containing protein 4; experiment: (§3) PROTAC activity at BRD4/VHL in human MCF7 cells assessed as induction of BRD4 degradation by measuring residual activity at 1 uM incubated for 24 hrs in presence of BRD4 based ligand ((4S)-6-(4-chlorophenyl)-4-(2-(ethylamino)-2-oxoethyl)-1-methyl4Hbenzo[f][1,2,4]triazolo [4,3-a][1,4]diazepin-8-yl)boronic acid by Western blot based Combinatorial Ubiquitination Real-time PROteolysis analysis; format: cell-based
[28] = target: T1, von Hippel-Lindau disease tumor suppressor/Bromodomain-containing protein 4; experiment: as §3, with “activity at 3 uM incubated” for “activity at 1 uM incubated”, “presence of 100 nM BRD4 based” for “presence of BRD4 based”; format: cell-based
[29] = target: T1, von Hippel-Lindau disease tumor suppressor/Bromodomain-containing protein 4; experiment: as §3, with “activity at 30 nM incubated for” for “activity at 1 uM incubated for”, “presence of 3 uM BRD4 based” for “presence of BRD4 based”; format: cell-based

SMILES | Activity [3] [%] | Activity [4] [%] | Activity [5] [%] | Activity [6] [%] | Activity [7] [%] | Activity [8] [%] | remaining at 1 h, 1 µM [16] [%] | half-life at 1 µM [17] [h] | remaining at 1 h, 1 µM [18] [%] | remaining at 1 h, 1 µM [19] [%] | Cmax [20] [ng/mL] | Tmax [21] [h] | AUC(0-t) at 24 h [22] [ng·h/mL] | half-life [23] [h] | also measured
CCNC(=O)C[C@@H]1N=C(c2ccc(Cl)cc2)c2cc(B(O)O)ccc2-n2c(C)nnc21 | 116 | 121 | 147 | 91 | 71 | 68 | 100 | > 1 | 107 | 101 | 1480 | 0.5 | 1860 | 6.3 | Activity [1]: inactive; Emax [2]: 47%; Activity [9]: 68%; Activity [10]: 101%; Activity [11]: 21%; Activity [12]: 16%; Activity [13]: 76%; t1/2 ([14]; mouse, microsomes, 1 h, 1 µM): 0.483 h; Stability ([15]; mouse, microsomes, 1 h, 1 µM): 112%
Cc1ncsc1-c1ccc(CNC(=O)[C@@H]2C[C@@H](O)CN2C(=O)[C@@H](NC(=O)c2cccc(O)c2O)C(C)(C)C)cc1 | 102 | 108 | 86 | 92 | 113 | 95 | 83 | > 1 | 73 | 87 | 1570 | 0.5 | 2340 | 6.3 | Tmax [24]: 7.75 h; Tmax [25]: 18 h; Activity [26]: 100%; Activity [27]: 64%; Activity [28]: 51%; Activity [29]: 90%; half-life at 1 µM ([14]; C57BL/6, mouse, liver microsomes): > 1 h; remaining at 1 h, 1 µM ([15]; C57BL/6, mouse, liver microsomes, read-out: Stability): 24%
